Key:
Assay in all cases: relative viability (nuclei count vs DMSO), 5 days (fraction); higher = more cells survive
[1] = system: NCI-H3122
Procedure, shortened: (§1)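 Five library-drug doses in √10 steps were combined with a fixed anchor-drug dose, or a single drug was given alone, by pin tool to lung cancer cell lines in 1536-well plates the day after seeding. Nuclei were stained and counted after 5 days. Relative viability is the nuclei count in treated wells over that in vehicle wells, taken as the median of duplicate plates.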

[2] = system: EPLC-272H
Procedure, shortened: as §1

[3] = system: LCLC-103H
Procedure, shortened: as §1

[4] = system: NCI-H2126
Procedure, shortened: as §1

[5] = system: SW 1573
Procedure, shortened: as §1

[6] = system: NCI-H322M
Procedure, shortened: as §1

[7] = system: SK-LU-1
Procedure, shortened: as §1

[8] = system: NCI-H1975
Procedure, shortened: as §1

[9] = system: NCI-H2085
Procedure, shortened: as §1

[10] = system: NCI-H1666
Procedure, shortened: as §1

[11] = system: ChaGo-K-1
Procedure, shortened: as §1

[12] = system: NCI-H23
Procedure, shortened: as §1

[13] = system: LOU-NH91
Procedure, shortened: as §1

[14] = system: NCI-H1563
Procedure, shortened: as §1

[15] = system: LU99A
Procedure, shortened: as §1

[16] = system: HCC-827
Procedure, shortened: as §1

[17] = system: HCC-78
Procedure, shortened: as §1

[18] = system: EMC-BAC-2
Procedure, shortened: as §1

[19] = system: NCI-H2405
Procedure, shortened: as §1

[20] = system: LXF-289
Procedure, shortened: as §1

[21] = system: RERF-LC-KJ
Procedure, shortened: as §1

## C=C1C(=O)O[C@@H](CCCCCCCC)[C@@H]1C(=O)O [C-75] + CC(C)C[C@H](NC(=O)[C@H](Cc1ccccc1)NC(=O)c1cnccn1)B(O)O [Bortezomib] (partner 0.002 µM)
[1]; first compound 0.08 µM
  relative viability: 1.01
[1]; first compound 0.253 µM
  relative viability: 0.987
[1]; first compound 0.8 µM
  relative viability: 0.989
[1]; first compound 8 µM
  relative viability: 1.04
[2]; first compound 0.08 µM
  relative viability: 1.03
[2]; first compound 0.253 µM
  relative viability: 0.845
[2]; first compound 0.8 µM
  relative viability: 0.792
[2]; first compound 2.53 µM
  relative viability: 0.833
[2]; first compound 8 µM
  relative viability: 0.913
[3]; first compound 0.08 µM
  relative viability: 1.23
[3]; first compound 0.253 µM
  relative viability: 0.907
[3]; first compound 0.8 µM
  relative viability: 1.06
[3]; first compound 2.53 µM
  relative viability: 0.811
[3]; first compound 8 µM
  relative viability: 1.18
[4]; first compound 0.08 µM
  relative viability: 1.1
[4]; first compound 0.253 µM
  relative viability: 1.29
[4]; first compound 0.8 µM
  relative viability: 1.09
[4]; first compound 2.53 µM
  relative viability: 0.886
[4]; first compound 8 µM
  relative viability: 1.08
[5]; first compound 0.08 µM
  relative viability: 1.05
[5]; first compound 0.253 µM
  relative viability: 0.949
[5]; first compound 0.8 µM
  relative viability: 1.03
[5]; first compound 2.53 µM
  relative viability: 1.07
[5]; first compound 8 µM
  relative viability: 0.912
[6]; first compound 0.08 µM
  relative viability: 1.36
[6]; first compound 0.253 µM
  relative viability: 1.45
[6]; first compound 0.8 µM
  relative viability: 1.21
[6]; first compound 2.53 µM
  relative viability: 1.09
[6]; first compound 8 µM
  relative viability: 1.25
[7]; first compound 0.08 µM
  relative viability: 1.24
[7]; first compound 0.253 µM
  relative viability: 1.11
[7]; first compound 0.8 µM
  relative viability: 0.836
[7]; first compound 2.53 µM
  relative viability: 0.847
[7]; first compound 8 µM
  relative viability: 0.658
[8]; first compound 0.08 µM
  relative viability: 0.332
[8]; first compound 0.253 µM
  relative viability: 0.395
[8]; first compound 0.8 µM
  relative viability: 0.4
[8]; first compound 2.53 µM
  relative viability: 0.283
[8]; first compound 8 µM
  relative viability: 0.361
[9]; first compound 0.08 µM
  relative viability: 1.13
[9]; first compound 0.253 µM
  relative viability: 0.882
[9]; first compound 0.8 µM
  relative viability: 0.999
[9]; first compound 2.53 µM
  relative viability: 0.76
[9]; first compound 8 µM
  relative viability: 0.897
[10]; first compound 0.08 µM
  relative viability: 0.888
[10]; first compound 0.253 µM
  relative viability: 0.948
[10]; first compound 0.8 µM
  relative viability: 0.7
[10]; first compound 2.53 µM
  relative viability: 0.7
[10]; first compound 8 µM
  relative viability: 0.641
[11]; first compound 0.08 µM
  relative viability: 0.927
[11]; first compound 0.253 µM
  relative viability: 0.944
[11]; first compound 0.8 µM
  relative viability: 0.894
[11]; first compound 2.53 µM
  relative viability: 0.872
[11]; first compound 8 µM
  relative viability: 0.96
[12]; first compound 0.08 µM
  relative viability: 0.953
[12]; first compound 0.253 µM
  relative viability: 1.07
[12]; first compound 0.8 µM
  relative viability: 0.962
[12]; first compound 2.53 µM
  relative viability: 0.865
[12]; first compound 8 µM
  relative viability: 0.696
[13]; first compound 0.08 µM
  relative viability: 0.47
[13]; first compound 0.253 µM
  relative viability: 0.495
[13]; first compound 0.8 µM
  relative viability: 0.454
[13]; first compound 2.53 µM
  relative viability: 0.346
[13]; first compound 8 µM
  relative viability: 0.394
[14]; first compound 0.08 µM
  relative viability: 0.855
[14]; first compound 0.253 µM
  relative viability: 1.1
[14]; first compound 0.8 µM
  relative viability: 0.963
[14]; first compound 2.53 µM
  relative viability: 0.763
[14]; first compound 8 µM
  relative viability: 0.906
[15]; first compound 0.08 µM
  relative viability: 1.1
[15]; first compound 0.253 µM
  relative viability: 1.03
[15]; first compound 0.8 µM
  relative viability: 1.08
[15]; first compound 2.53 µM
  relative viability: 0.933
[15]; first compound 8 µM
  relative viability: 0.885
[16]; first compound 0.08 µM
  relative viability: 1.09
[16]; first compound 0.253 µM
  relative viability: 0.995
[16]; first compound 0.8 µM
  relative viability: 0.972
[16]; first compound 2.53 µM
  relative viability: 1.01
[16]; first compound 8 µM
  relative viability: 1.08
[17]; first compound 0.08 µM
  relative viability: 0.507
[17]; first compound 0.253 µM
  relative viability: 0.412
[17]; first compound 0.8 µM
  relative viability: 0.386
[17]; first compound 2.53 µM
  relative viability: 0.423
[17]; first compound 8 µM
  relative viability: 0.472
[18]; first compound 0.08 µM
  relative viability: 1.1
[18]; first compound 0.253 µM
  relative viability: 1.05
[18]; first compound 0.8 µM
  relative viability: 1.11
[18]; first compound 2.53 µM
  relative viability: 0.914
[18]; first compound 8 µM
  relative viability: 1.13
[19]; first compound 0.08 µM
  relative viability: 0.995
[19]; first compound 0.253 µM
  relative viability: 0.773
[19]; first compound 0.8 µM
  relative viability: 0.974
[19]; first compound 2.53 µM
  relative viability: 0.673
[19]; first compound 8 µM
  relative viability: 0.971
[20]; first compound 0.08 µM
  relative viability: 0.945
[20]; first compound 0.253 µM
  relative viability: 0.984
[20]; first compound 0.8 µM
  relative viability: 0.889
[20]; first compound 2.53 µM
  relative viability: 0.951
[20]; first compound 8 µM
  relative viability: 0.989
[21]; first compound 0.08 µM
  relative viability: 1.17
[21]; first compound 0.253 µM
  relative viability: 1.09
[21]; first compound 0.8 µM
  relative viability: 1.21
[21]; first compound 2.53 µM
  relative viability: 1.09
[21]; first compound 8 µM
  relative viability: 1.31
